Experimental data: article PMC10989506, “Cell penetration of oxadiazole-containing macrocycles” (RSC Chemical Biology, 2024)
“And” between values parts separate entries of the source, which are not always exact repeats. Identical values can stand only once. *1 amine or outer side, *2 acyl side, *3 side chain or, on linkers, in order; H or OH if unused. Where a SMILES comes first, the peptide text is derived from it. Side-chain parts run from the residue outwards. The star is where a group is joined. NH(CH2CH2O)2(CH2)6Cl = ClCCCCCCOCCOCCN*; Suc = O=C(CCC(=O)[*:2])[*:1]

Tests used:
[1] = PAMPA; for −log Pe: pH 7.4
Procedure: (§1) 5 Parallel Artificial Membrane Permeability Assay (PAMPA)
(§2) PAMPA analysis was conducted following a procedure reported by Lokey and coworkers. 9 Each measurement was conducted at room temperature in an insulated polystyrene box to maintain a constant internal temperature. Measurements were taken in triplicate, and the reported permeability values are the average value over the three runs. Carbamaz epine was included in the stock solution of each cyclic peptide to verify the integrity of the membrane as an internal standard.
(§3) Preparation of stock solution for donor well: Stock solutions were prepared by dissolving the […]
cyclic peptide (0.5 mM) and carbamazepine (0.5 mM) (as an internal standard) in DMSO at a gross […]
concentration of 1 mM. 10 μL of this stock solution was added to 990 μL PBS buffer (pH 7.4) to […]
give a 1 mL solution (10 μM, 1% DMSO v/v) for addition to the donor plate wells.
Preparation of acceptor plate: A stock solution of 5% DMSO in PBS buffer was prepared, and […]
300μL of this solution was added to each of the acceptor wells (96-well Teflon acceptor plate […]
Preparation of donor plate: 100 mg of lethicin (90%, soybean) was suspended in n -dodecane (10 […]
mL) and sonicated to give a homogenous, clear solution. 5 μL of this solution was carefully applied […]
to the membrane in the 96-well donor plate (with 0.45 μm hydrophobic Immobilon-P membrane […]
supports (Millipore MAIPNTR10)) (with care, without touching the membrane). Shortly after (~5 - […]
15 min), 150 μL of the 10 μM stock solution of cyclic peptide and carbamazepine (prepared as […]
above) were added to the donor well. The donor plate was placed on top of the acceptor wells and […]

[2] = test system: HeLa cells stably expressing the HaloTag-GFP-Mito construct; assay: Chloroalkane Penetration Assay (CAPA); assay type: cell-based
From the text: Cell-based assays such as the Caco-2 assay and Madin–Darby canine kidney cell line (MDCK) permeability assay have been employed to offer a fuller assessment of transport in vitro.[22,23] The chloroalkane penetration assay (CAPA) is a relatively recent methodology for measuring cell penetration in live cells (Fig. 1d).[24] This assay uses cells that express a modified haloalkane dehalogenase known as HaloTag that reacts rapidly, selectively, and irreversibly with small chloroalkane ligands.[25,26] CAPA measures cytosolic penetration by pulsing cells with a chloroalkane-tagged compound (ct-compound), then chasing with a chloroaklane-tagged dye (ct-dye). If the ct-compound penetrates the cell and escapes from endosomes, it reacts with HaloTag and blocks the reaction with the ct-dye in the subsequent chase step. Thus, in CAPA, cell penetration of the ct-molecule is inversely proportional to the signal from the ct-dye retained in the cells. The dose dependence of this signal can be fit to a sigmoidal curve, whose midpoint value (called the CP50) can be compared among ct-compounds as a quantitative comparison of cell penetration.[27,28] CAPA is a cost-effective and high-throughput method for measuring the cell penetration of cyclic peptides and other molecules, and it establishes penetration to the cytosol without interference from material trapped in endosomes. In this work, we use CAPA to investigate the cell penetration of Odz macrocycles.
3 Chloroalkane Penetration Assay (CAPA)
Media was aspirated and cells were
washed with serum-free media.
Lysate stability assays were performed essentially as described. 8 For lysate stability assays, HeLa

in vitro = assay: in vitro
Procedure: (1 picture or pasted object on this page, not shown here) […]
were taken at each time point and quenched in 160 μL of ice-cold methanol. Samples were spun down for 10 min at 21,000 g prior to analysis by reverse phase analytical HPLC on a C18 column.
Chromatogram peaks were integrated to measure amount of peptide remaining at each time point.
Peak volumes for each timepoint were normalized to the zero-hour timepoint to determine percentage of peptide remaining. Data presented are the average of three biological replicates performed with different lysates on different days.
as §1, §2, §3

[3] = Relative hydrophobicity by reverse-phase HPLC retention time; assay type: physicochemical; conditions: C18 LC-MS, gradient 95%/5% MeCN to 100% MeCN over 15 min; measure of relative lipophilicity
From the text: To provide additional evidence for this hypothesis, we used the retention time on reverse phase HPLC as a measure of the overall relative lipophilicity. […] Overall, the more lipophilic cyclic peptides had more efficient cell penetration than the more hydrophilic ones.

Row | Structure (SMILES) | −log Pe [1] | other results
1 | CC[C@H]1C2=NN=C(O2)[C@H](Cc2ccccc2)NC(=O)CNC(=O)[C@H](CCCCNC(=O)CCC(=O)NCCOCCOCCCCCCCl)NC(=O)CNC(=O)[C@@H]2CCCN21 [Compound 2] | 7.92 ± 0.07 | –
2 | CC[C@H]1C2=NN=C(O2)[C@H](Cc2ccccc2)NC(=O)CNC(=O)[C@H](CC(C)C)NC(=O)[C@H](CCCCNC(=O)CCC(=O)NCCOCCOCCCCCCCl)NC(=O)[C@@H]2CCCN21 [Compound 3] | 7.84 ± 0.04 | –
3 | CC[C@@H]1N[C@@H](CCCCNC(=O)CCC(=O)NCCOCCOCCCCCCCl)C(=O)NCC(=O)N[C@@H](CC(C)C)C(=O)NCC(=O)N[C@@H](Cc2ccccc2)C2=NN=C1O2 [Compound 4] | 7.85 ± 0.052 | –
4 | CC[C@H]1C2=NN=C(O2)[C@H](CCCCNC(=O)CCC(=O)NCCOCCOCCCCCCCl)NC(=O)CNC(=O)[C@H](CC(C)C)NC(=O)CNC(=O)[C@@H]2CCCN21 [Compound 5] | >8 | –
5 | CC[C@H]1C2=NN=C(O2)[C@H](Cc2ccccc2)NC(=O)[C@H](CCCCNC(=O)CCC(=O)NCCOCCOCCCCCCCl)NC(=O)[C@H](CC(C)C)NC(=O)[C@H](CC(=O)O)NC(=O)[C@@H]2CCCN21 [Compound 6] | >8 | –
6 | CC[C@H]1C2=NN=C(O2)[C@H](Cc2ccccc2)NC(=O)[C@H](CCCCNC(=O)CCC(=O)NCCOCCOCCCCCCCl)NC(=O)[C@H](CC(=O)O)NC(=O)[C@H](CC(=O)O)NC(=O)[C@@H]2CCCN21 [Compound 7] | >8 | –
7 | CC(C)C[C@@H]1NC(=O)CNC(=O)[C@@H]2CCCN2C(=O)[C@H](C)NC(=O)[C@H](Cc2ccccc2)NC(=O)[C@H](CCCCNC(=O)CCC(=O)NCCOCCOCCCCCCCl)NC1=O [Compound 8] (cyclo(PGLK([Suc-NH(CH2CH2O)2(CH2)6Cl])FA)) | >8 | cell penetration, fold worse than compound 1 ([2]; CAPA CP50 compared with compound 1): more than 20 fold; CP50 after 30 min incubation ([2]; ct-peptides incubated with cells in Opti-MEM for 30 min prior to chasing with ct-dye): 1.0 µM and 1.0 ± 0.03 µM; CP50 after 4 h incubation ([2]; ct-peptides incubated with cells in Opti-MEM for 4 h prior to chasing with ct-dye): 0.22 µM and 0.22 ± 0.02 µM; intact compound remaining in HeLa lysate (in vitro; 4 h): almost no intact macrocycle; remaining at 1 h, 150 μM (in vitro; human, cells or culture medium, pH 8): ~50%; T ret [3]: 7.95 min
8 | NC(=O)N1c2ccccc2C=Cc2ccccc21 [carbamazepine, reference compound] | – | -Log Papp [1]: 5.7–5.8
